From ChEMBL document CHEMBL1138659 (J Med Chem, 2004)

Assays:
[1] = molecular target: cAMP-dependent protein kinase catalytic subunit beta (Homo sapiens, UniProt P22694); assay: Inhibition of human Protein kinase A beta
[2] = molecular target: RAC-alpha serine/threonine-protein kinase (Homo sapiens, UniProt P31749); assay: Inhibition of human Akt1
[3] = species: Rattus norvegicus; assay: Threshold minimal effective dose in rats; type: functional
[4] = molecular target: Protein kinase C beta type (Homo sapiens, UniProt P05771); assay: Inhibition of human Protein kinase C beta 2
Sequence of Protein kinase C beta type (P05771 whole entry): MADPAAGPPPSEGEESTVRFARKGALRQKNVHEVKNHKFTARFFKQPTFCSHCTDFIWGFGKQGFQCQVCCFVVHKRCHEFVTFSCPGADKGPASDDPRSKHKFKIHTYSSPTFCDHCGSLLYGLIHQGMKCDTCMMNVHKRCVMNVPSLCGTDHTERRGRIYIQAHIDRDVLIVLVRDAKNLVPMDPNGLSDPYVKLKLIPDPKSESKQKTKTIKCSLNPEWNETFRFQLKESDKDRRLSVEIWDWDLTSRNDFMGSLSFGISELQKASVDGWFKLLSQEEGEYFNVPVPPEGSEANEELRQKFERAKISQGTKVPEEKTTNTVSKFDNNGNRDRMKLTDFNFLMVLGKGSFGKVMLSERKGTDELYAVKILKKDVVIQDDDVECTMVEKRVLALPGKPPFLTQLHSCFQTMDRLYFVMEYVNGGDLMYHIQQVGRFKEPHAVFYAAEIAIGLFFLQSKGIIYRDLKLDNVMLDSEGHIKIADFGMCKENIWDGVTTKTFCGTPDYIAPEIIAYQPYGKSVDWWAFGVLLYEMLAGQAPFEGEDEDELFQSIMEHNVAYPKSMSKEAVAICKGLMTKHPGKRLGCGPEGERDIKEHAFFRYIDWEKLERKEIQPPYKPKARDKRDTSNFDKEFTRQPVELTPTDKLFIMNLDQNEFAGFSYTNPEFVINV

[5] = molecular target: T1, Glycogen synthase kinase-3 beta (Homo sapiens, UniProt P49841); assay: Inhibition of Glycogen synthase kinase-3 beta dependent Tau protein serine-396 phosphorylation in human SY5Y cells; type: functional, cell-based
T1 sequence (P49841 whole entry): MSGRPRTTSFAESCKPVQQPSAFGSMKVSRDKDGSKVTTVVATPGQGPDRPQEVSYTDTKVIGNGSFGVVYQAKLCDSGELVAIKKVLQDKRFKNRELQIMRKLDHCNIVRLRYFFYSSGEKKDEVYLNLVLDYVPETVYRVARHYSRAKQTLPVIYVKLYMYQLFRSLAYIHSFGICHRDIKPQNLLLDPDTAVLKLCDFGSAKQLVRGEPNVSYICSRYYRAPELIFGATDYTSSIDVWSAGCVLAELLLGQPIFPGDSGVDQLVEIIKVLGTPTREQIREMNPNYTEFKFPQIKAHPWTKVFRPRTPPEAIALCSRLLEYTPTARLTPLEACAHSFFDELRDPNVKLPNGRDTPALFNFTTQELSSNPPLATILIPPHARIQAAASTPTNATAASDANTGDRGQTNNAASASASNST

[6] = molecular target: Cyclin-dependent kinase 4 (Homo sapiens, UniProt P11802); assay: Inhibition of human Cyclin-dependent kinase 4
Sequence of Cyclin-dependent kinase 4 (P11802 whole entry): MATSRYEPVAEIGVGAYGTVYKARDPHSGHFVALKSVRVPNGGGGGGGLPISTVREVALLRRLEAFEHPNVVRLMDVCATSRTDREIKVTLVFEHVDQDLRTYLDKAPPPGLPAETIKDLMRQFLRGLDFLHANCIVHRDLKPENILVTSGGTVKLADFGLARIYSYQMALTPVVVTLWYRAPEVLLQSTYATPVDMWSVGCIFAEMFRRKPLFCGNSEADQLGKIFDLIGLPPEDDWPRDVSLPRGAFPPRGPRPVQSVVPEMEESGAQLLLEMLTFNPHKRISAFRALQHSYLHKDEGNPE

[7] = molecular target: TGF-beta receptor type-2 (Homo sapiens, UniProt P37173); assay: Inhibition of human TGF-beta type II receptor
Sequence of TGF-beta receptor type-2 (P37173 whole entry): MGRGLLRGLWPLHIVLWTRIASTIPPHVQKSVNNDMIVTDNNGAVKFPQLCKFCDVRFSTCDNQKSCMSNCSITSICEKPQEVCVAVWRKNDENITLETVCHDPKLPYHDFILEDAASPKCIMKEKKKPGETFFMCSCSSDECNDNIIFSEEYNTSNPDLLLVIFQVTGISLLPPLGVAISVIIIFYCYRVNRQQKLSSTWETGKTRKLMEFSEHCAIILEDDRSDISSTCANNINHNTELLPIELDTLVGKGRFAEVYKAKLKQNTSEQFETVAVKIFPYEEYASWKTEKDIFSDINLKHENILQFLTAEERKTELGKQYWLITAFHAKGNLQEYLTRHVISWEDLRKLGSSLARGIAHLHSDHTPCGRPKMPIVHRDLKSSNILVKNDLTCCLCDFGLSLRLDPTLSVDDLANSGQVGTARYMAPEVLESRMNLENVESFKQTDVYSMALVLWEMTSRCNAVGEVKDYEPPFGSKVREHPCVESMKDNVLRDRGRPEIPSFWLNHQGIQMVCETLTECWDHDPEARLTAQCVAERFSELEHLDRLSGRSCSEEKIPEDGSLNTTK

[8] = tested on: Rattus norvegicus; assay: In vivo insulin (10 units) response in rats at 10 mg/kg dose; type: functional
[9] = tested on: Rattus norvegicus; assay: In vivo glucose reduction in rats at 10 mg/kg dose; type: functional; set-up: scale not given: the % may be the effect or the level left
[10] = molecular target: T1, Glycogen synthase kinase-3 beta
Description: Inhibition of human Glycogen synthase kinase-3 beta

[11] = molecular target: Vascular endothelial growth factor receptor 2 (Homo sapiens, UniProt P35968); assay: Inhibition of human Vascular endothelial growth factor receptor 2
Sequence of Vascular endothelial growth factor receptor 2 (P35968 whole entry): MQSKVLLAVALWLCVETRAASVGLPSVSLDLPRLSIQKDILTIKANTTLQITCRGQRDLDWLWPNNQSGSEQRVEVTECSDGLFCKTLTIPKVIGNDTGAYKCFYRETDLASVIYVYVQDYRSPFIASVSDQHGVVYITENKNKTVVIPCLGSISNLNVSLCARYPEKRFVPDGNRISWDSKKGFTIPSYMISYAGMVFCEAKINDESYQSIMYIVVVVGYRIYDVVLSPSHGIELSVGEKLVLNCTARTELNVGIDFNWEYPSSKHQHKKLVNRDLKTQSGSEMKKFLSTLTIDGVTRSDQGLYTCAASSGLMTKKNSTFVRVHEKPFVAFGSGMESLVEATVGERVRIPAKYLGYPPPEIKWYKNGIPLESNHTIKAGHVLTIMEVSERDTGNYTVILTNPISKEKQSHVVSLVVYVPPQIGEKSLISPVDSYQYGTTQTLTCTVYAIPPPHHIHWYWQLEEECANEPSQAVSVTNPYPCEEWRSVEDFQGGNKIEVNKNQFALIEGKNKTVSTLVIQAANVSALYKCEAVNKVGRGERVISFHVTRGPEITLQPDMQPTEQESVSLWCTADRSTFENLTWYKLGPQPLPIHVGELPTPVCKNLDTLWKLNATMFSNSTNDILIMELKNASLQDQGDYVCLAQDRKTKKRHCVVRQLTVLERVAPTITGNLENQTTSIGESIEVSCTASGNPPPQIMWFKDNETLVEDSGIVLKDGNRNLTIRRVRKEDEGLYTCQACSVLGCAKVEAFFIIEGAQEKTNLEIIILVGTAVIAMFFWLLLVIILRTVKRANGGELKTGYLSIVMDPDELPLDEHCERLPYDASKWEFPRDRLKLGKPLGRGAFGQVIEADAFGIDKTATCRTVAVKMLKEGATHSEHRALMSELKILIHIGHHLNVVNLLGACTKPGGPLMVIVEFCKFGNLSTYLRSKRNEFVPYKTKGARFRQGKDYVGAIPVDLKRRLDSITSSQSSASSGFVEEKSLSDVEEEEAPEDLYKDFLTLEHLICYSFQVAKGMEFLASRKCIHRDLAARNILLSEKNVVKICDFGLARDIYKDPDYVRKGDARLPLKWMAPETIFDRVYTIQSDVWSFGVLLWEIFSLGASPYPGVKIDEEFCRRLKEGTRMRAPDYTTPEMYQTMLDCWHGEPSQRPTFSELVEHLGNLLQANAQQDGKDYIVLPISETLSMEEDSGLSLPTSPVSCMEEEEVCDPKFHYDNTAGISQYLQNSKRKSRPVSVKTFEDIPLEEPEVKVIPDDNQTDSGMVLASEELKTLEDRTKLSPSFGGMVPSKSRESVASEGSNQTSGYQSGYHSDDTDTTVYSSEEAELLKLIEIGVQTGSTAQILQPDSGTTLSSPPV

[12] = molecular target: Cyclin-dependent kinase 2 (Homo sapiens, UniProt P24941); assay: Inhibition of human Cyclin-dependent kinase 2
[13] = molecular target: MAP kinase p38 (Homo sapiens, UniProt O15264+Q15759+Q16539+P53778); assay: Inhibition of human Mitogen-activated protein kinase p38
[14] = molecular target: Mitogen-activated protein kinase kinase kinase 20 (Homo sapiens, UniProt Q9NYL2)
Sequence of Mitogen-activated protein kinase kinase kinase 20 (Q9NYL2 whole entry): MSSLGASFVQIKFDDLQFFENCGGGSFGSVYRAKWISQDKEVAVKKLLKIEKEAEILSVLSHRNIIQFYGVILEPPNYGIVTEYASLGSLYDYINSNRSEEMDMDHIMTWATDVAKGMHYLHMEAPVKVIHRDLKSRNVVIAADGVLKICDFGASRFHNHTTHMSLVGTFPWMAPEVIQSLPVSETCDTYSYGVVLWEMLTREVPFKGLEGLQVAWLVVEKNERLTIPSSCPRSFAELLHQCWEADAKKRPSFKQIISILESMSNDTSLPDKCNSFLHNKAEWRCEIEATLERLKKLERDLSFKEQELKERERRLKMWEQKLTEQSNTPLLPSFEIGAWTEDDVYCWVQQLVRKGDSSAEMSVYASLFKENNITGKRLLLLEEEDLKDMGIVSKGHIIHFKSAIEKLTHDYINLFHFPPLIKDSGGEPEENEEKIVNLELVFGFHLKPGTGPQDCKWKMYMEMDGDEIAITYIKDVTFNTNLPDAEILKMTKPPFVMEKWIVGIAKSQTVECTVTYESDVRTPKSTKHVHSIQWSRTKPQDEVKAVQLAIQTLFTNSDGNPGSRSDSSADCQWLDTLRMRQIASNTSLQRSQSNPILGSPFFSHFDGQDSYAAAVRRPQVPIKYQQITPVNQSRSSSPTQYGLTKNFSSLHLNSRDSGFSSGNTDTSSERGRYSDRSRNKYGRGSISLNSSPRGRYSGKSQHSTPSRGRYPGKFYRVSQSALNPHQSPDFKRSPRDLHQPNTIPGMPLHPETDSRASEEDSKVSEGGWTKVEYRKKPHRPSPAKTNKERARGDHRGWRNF

[15] = Compound was tested for in vivo clearance; type: ADME, organism-based; conditions: rat
[16] = Compound was tested for volume distribution; type: ADME; conditions: rat; read-out: Volume distribution
[17] = Oral bioavailability; type: ADME, organism-based; conditions: rat, in vivo
[18] = Half life in oral, hours; type: ADME, organism-based; conditions: rat, in vivo
[19] = Half life in in vivo, hours; type: ADME, organism-based; conditions: rat
[20] = Compound was tested for oral AUC at 0 to 24 hours; type: ADME; set-up: time < 24 hr, route oral; conditions: rat

Sequence of RAC-alpha serine/threonine-protein kinase (P31749 whole entry): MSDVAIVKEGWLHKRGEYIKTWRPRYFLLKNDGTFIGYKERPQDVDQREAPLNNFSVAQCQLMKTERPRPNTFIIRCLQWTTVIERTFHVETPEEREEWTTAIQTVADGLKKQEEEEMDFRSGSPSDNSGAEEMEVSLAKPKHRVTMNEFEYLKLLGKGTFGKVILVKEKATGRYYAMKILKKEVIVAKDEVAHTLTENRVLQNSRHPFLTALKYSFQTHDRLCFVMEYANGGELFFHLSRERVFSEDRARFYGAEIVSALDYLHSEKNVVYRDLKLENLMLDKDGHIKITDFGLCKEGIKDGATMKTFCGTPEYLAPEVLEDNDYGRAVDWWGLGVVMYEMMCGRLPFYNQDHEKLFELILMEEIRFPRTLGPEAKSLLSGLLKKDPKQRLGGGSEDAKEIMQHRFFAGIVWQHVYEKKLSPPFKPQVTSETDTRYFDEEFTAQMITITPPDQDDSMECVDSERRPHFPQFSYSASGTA

SMILES | IC50 [1] [nM] | IC50 [2] [nM] | IC50 [4] [nM] | IC50 [5] [nM] | IC50 [6] [nM] | IC50 [7] [nM] | IC50 [10] [nM] | IC50 [11] [nM] | IC50 [12] [nM] | IC50 [13] [nM] | IC50 [14] [nM] | clearance [15] [mL/min/kg] | Vd [16] [L] | bioavailability [17] [%] | half-life [18] [h] | half-life [19] [h] | AUC [20] [ng·h/mL] | TMED [3] [mg/kg] | Response [8] [%] | Activity [9] [%]
CN(C)C(=O)N1CCn2cc(C3=C(c4cnc5ccccn45)C(=O)NC3=O)c3cccc(c32)C1 | > 20000 | > 20000 | 1000 | 12 | 1500 | > 20000 | 1.6 | > 20000 | 2100 | > 20000 | > 20000 | – | – | – | – | – | – | – | 104 | 53
CC(C)OC(=O)N1CCn2cc(C3=C(c4cnc5ccccn45)C(=O)NC3=O)c3cccc(c32)C1 | > 20000 | > 20000 | 800 | 15 | 3300 | > 20000 | 1.3 | > 20000 | 3400 | – | > 20000 | – | – | – | – | – | – | 4.27 | 105 | 58
O=C1NC(=O)C(c2cnc3ccccn23)=C1c1cn2c3c(cc(F)cc13)CN(C(=O)N1CCCCC1)CC2 [LY-2090314] | > 20000 | > 20000 | 420 | 0.7 | 1800 | 1200 | 1.1 | – | – | – | – | 12 | 1 | 23 | 2.8 | 1.1 | 3550 | 1.5 | 124 | 61

Continued, in another order:

IC50 [1] [nM] | IC50 [2] [nM] | IC50 [4] [nM] | IC50 [5] [nM] | IC50 [6] [nM] | IC50 [7] [nM] | IC50 [10] [nM] | IC50 [11] [nM] | IC50 [12] [nM] | IC50 [13] [nM] | IC50 [14] [nM] | clearance [15] [mL/min/kg] | Vd [16] [L] | bioavailability [17] [%] | half-life [18] [h] | half-life [19] [h] | AUC [20] [ng·h/mL] | SMILES | TMED [3] [mg/kg] | Response [8] [%] | Activity [9] [%]
> 20000 | > 20000 | 1100 | 2.6 | 1700 | 2000 | 1.3 | – | – | – | – | – | – | – | – | – | – | O=C1NC(=O)C(c2cnc3ccccn23)=C1c1cn2c3c(cccc13)CN(C(=O)N1CCOCC1)CC2 | 1.44 | 119 | 78
– | > 20000 | 560 | 1.6 | 4800 | 3100 | 2 | > 20000 | 5400 | > 20000 | – | – | – | – | – | – | – | O=C1NC(=O)C(c2cnc3ccccn23)=C1c1cn2c3c(cccc13)CN(C(=O)N1CCCCC1)CC2 | 2.22 | 124 | 69
